Test results as given in paper PMC4381330, “Identification of a novel selective agonist of PPARγ with no promotion of adipogenesis and less inhibition of osteoblastogenesis” (Scientific Reports, 2015).
Where a chain is given by its changes, count along the chain named.

Legend:
[1] = test system: PPARγ LBD mutants; type: cell-based, human; details: compared with wild-type PPARγ LBD
Procedure: All chemicals were purchased from Sigma-Aldrich (St. Louis, MO, USA). All medium and serum were obtained from Gibco (Invitrogen). […] Mutations in pBIND-PPARγ-LBD were created by site-directed mutagenesis using the Fast Mutagenesis System (TransGen Biotech, Beijing, China).
(§1) The determination of nuclear receptor activation was performed as previously. Briefly, HEK293T cells were transfected with GAL4-pGL4-luc reporter plasmid and pBIND-PPARγ-LBD expression plasmid using Lipofectamine 2000 (Invitrogen) for 6 h before treatment with compounds for 20–24 h. Activity was determined by the Luciferase Assay System (Promega).

[2] = biological target: T1, human PPARγ-LBD (Homo sapiens, UniProt P37231); assay: GAL4-PPARγ-LBD luciferase reporter gene assay in HEK293T cells; type: cell-based
T1 construct: expressed in transfected cells; host or cells: HEK293T
T1 sequence (P37231 172-476 isoform P37231-2): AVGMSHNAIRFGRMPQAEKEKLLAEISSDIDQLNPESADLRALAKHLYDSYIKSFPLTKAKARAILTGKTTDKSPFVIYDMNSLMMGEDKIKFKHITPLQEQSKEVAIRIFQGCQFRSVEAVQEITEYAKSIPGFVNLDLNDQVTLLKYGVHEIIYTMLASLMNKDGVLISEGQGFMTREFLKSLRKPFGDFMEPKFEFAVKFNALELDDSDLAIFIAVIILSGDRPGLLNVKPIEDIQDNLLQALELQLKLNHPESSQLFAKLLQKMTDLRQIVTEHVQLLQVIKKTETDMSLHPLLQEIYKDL
Procedure: as §1

[3] = biological target: T2, PPARγ Y473A (Homo sapiens, UniProt P37231, Y501A); assay: Y473A assay (PPARγ reporter gene assay with Tyr473 of pBIND-PPARγ-LBD mutated into alanine); type: cell-based
T2 construct: expressed in transfected cells; host or cells: HEK293T
T2 sequence (P37231 172-476 isoform P37231-2 Y473A): T1 sequence (P37231 172-476 isoform P37231-2) with Y302A
Procedure: All chemicals were purchased from Sigma-Aldrich (St. Louis, MO, USA). All medium and serum were obtained from Gibco (Invitrogen). The wild-type gene of human PPARγ-LBD (amino acids 172–476) was obtained by PCR and cloned into pBIND vector (Promega). Mutations in pBIND-PPARγ-LBD were created by site-directed mutagenesis using the Fast Mutagenesis System (TransGen Biotech, Beijing, China).
as §1
Supplementary Figure 1: Workflow of virtual screening and the procedure used for selecting hits whose bioactivity was experimentally tested. We developed a virtual screening workflow by Discovery Studio 4.0 software to identify selective agonists of PPARγ. The key steps of this workflow is the two pharmacophore models. One is the antipharmacophore model which excludes compounds whose structure are similar to known full agonists, the other one is the pharmacophore model which identifies selective agonists. Biological assays were performed after virtual steps to further screen leads. […]

[4] = biological target: T3, LXRβ (Homo sapiens, UniProt P55055); assay: Receptor-specific transactivation, GAL4-LBD reporter in HEK293T cells; type: cell-based; details: 30 μM F12016
T3 construct: expressed in transfected cells; host or cells: HEK293T
T3 sequence (P55055 222-460 limits assumed): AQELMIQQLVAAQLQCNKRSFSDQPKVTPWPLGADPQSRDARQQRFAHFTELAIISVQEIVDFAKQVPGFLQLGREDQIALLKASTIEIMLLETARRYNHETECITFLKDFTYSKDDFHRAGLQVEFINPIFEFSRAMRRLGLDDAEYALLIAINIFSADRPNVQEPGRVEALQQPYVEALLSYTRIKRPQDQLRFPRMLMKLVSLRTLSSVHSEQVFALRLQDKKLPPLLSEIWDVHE
Procedure: (§2) HEK293T cells were cotransfected with a GAL4-pGL4-luc reporter and plasmids encoding various nuclear receptor LBDs fused with the GAL4 DNA-binding domain. […] LXR, liver X receptor; RXR, retinoid X receptor.
as §1

[5] = biological target: T4, PPARα (Homo sapiens, UniProt Q07869); assay: as above; type: cell-based; details: 30 μM F12016
T4 construct: expressed in transfected cells; host or cells: HEK293T
T4 sequence (Q07869 239-466 limits assumed): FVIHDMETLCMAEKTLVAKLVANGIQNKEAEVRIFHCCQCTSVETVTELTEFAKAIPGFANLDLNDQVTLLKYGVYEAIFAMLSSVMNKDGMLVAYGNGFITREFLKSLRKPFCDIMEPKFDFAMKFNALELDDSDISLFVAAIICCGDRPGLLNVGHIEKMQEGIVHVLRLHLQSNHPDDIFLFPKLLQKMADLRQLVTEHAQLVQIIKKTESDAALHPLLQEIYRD
Procedure: as §2, §1

[6] = biological target: T5, CDK5 (substrate Rb protein) (Homo sapiens, UniProt Q00535); assay: In vitro CDK5-mediated phosphorylation of Rb protein; type: biochemical
T5 construct: purchased Millipore
T5 sequence (Q00535 whole entry): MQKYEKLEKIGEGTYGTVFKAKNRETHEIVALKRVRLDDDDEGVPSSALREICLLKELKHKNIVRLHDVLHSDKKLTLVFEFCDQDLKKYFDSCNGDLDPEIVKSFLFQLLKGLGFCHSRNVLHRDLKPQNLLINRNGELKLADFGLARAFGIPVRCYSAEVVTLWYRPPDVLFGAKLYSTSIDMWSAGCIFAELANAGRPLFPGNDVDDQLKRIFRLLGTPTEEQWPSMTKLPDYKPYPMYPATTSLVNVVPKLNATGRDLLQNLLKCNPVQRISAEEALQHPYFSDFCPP
T5 sequence (Q15078 99-307 partner limits assumed): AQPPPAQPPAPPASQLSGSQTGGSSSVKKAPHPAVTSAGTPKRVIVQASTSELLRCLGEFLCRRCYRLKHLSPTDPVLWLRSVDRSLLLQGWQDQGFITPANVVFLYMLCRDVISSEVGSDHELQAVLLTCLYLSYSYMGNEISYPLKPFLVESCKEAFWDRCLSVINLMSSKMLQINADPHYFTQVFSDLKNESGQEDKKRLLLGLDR

[7] = test system: MC3T3-E1 preosteoblasts; assay: Osteoblastic differentiation of MC3T3-E1 cells (Alizarin red S, Alp activity); type: cell-based; details: F12016 1, 10, 30 μM
Procedure: MC3T3-E1 cells were cultured in α-MEM to confluency in 24-well plates and then cultured in differentiation medium (α-MEM supplemented with 200 μM ascorbic acid and 10 mM β-glycerophosphate) for 7, 14, and 21 days, which was replaced every 3 days. The cells were treated with DMSO, rosiglitazone, or F12016 at the start of differentiation. At day 8, 15 and 22, total RNA was isolated, and real-time PCR was performed as described below.
Mature osteoblasts were stained with Alizarin red S and Alp activity were measured at day 22. In brief, cells were fixed with 75% ethanol and stained with 40 mM Alizarin red S solution (pH 4.1–4.3) for 10 min. For Alp assay, the cells were harvested and sonicated on ice with two 30s-pulses. Supernatant of lysate was incubated with isopyknic 1.0 mg/ml pNPP (Sigma–aldrich) solution (1 M diethanolamine buffer, 0.5 mM magnesium chloride) for 30 min at 37°C. The reaction was measured at 405 nm. Relative ALP activity was normalized to the protein concentration.

[8] = activation relative to rosiglitazone (RGZ)

Substance: 2-[2-(1, 2-dimethyl-1H-indol-3-yl)-2-oxo-acetylamino]-benzamide [Compound F12016]
- activation of R288A, L340A and S342A mutants [1]: reduced the ability of F12016 to activate PPARγ
- activation of S289A, H323A, H449A and Y473A mutants [1]: almost the same activity as the wild-type PPARγ LBD
- transcriptional activity of PPARγ ([2]; 30 μM F12016, HEK293T): significantly induced transcriptional activity of PPARγ
- maximal activation of GAL4-PPARγ ([2]; HEK293T, GAL4-PPARγ-LBD reporter): approximately 4 fold
- EC50 ([2]; HEK293T, GAL4-PPARγ-LBD reporter, read-out: PPARγ WT EC50 (activation of GAL4-PPARγ)): 3.24 µM
- PPARγ WT (RGZ %) [2, 8]: 29.08%
- concentration antagonizing rosiglitazone-dependent PPARγ activation ([2]; in presence of 1 μM rosiglitazone, reporter assay): ≥ 2.5 µM
- EC50 [3]: 5.21 µM
- PPARγ Y473A (RGZ %) [3, 8]: 29.12%
- transactivation of LXRβ [4]: no effects
- transactivation of PPARα [5]: no effects
- phosphorylation of CDK5 substrate Rb protein [6]: no effect
- alkaline phosphatase (Alp) activity [7]: less reductions in mineralization and Alp activity
- mineralization (Alizarin Red S) [7]: less reductions in mineralization
